The source of these data is ChEMBL document CHEMBL1201862, “PubChem BioAssay data set” (2004).

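Results reflect a 48-hour exposure of cells in 96-well plates to compound at five concentrations. At the GI50, growth is halved.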 Calls of active or inactive are those of the source. Rule as the data show it: active = GI50 up to about 1.1 µM and inactive = higher.

Some test systems named below: Hs-578T; NCI-H226; OVCAR-5; OVCAR-8; A549; SN12C; MDA-MB-231; RXF 393; M14; UO-31; BT-549; ACHN; SK-MEL-2; KM12; CAKI-1; MOLT-4; HCC 2998; EKVX; SK-MEL-28; SNB-75.
What all share (experiment): NCI tumour cell line growth inhibition, 48 h

Consider `COC(=O)c1oc([N+](=O)[O-])c(Cl)c1Cl`, for which the GI50 with Hs-578T is 11.4 µM (inactive); with NCI-H226 it was 21.3 µM (inactive); with OVCAR-5, 8.13 µM (inactive); in the experiment with OVCAR-8, 10.6 µM (inactive); in the experiment with A549, 8.51 µM (inactive); in the experiment on SN12C, 7.53 µM (inactive). The GI50 in the experiment on MDA-MB-231 was 7.35 µM (inactive); in the experiment with RXF 393 it was 12.7 µM (inactive); in the experiment on M14, 7.28 µM (inactive); in the experiment with UO-31 it was 8.07 µM (inactive); with BT-549 it was 7.98 µM (inactive); with ACHN, 8.91 µM (inactive). For the same molecule, the GI50 in the experiment with SK-MEL-2 was 12.2 µM (inactive); in the experiment with KM12 it was 5.83 µM (inactive); with CAKI-1, 2.44 µM (inactive); in the experiment with MOLT-4 it was 2.19 µM (inactive); in the experiment with HCC 2998, 20 µM (inactive); with EKVX, 19.8 µM (inactive). The GI50 was 8.53 µM (inactive) with SK-MEL-28 and 7.78 µM (inactive) in the experiment with SNB-75.
For `N=C(N)NS(=O)(=O)c1ccc(NC(=O)c2cccc3c(NNc4ccc(C(=O)O)cc4)c4ccccc4nc23)cc1`, the GI50 in the experiment on Hs-578T is > 100 µM (inactive); in the experiment with NCI-H226, 64 µM (inactive); with OVCAR-5 it was > 100 µM (inactive); in the experiment with OVCAR-8, > 100 µM (inactive); with A549, > 100 µM (inactive); in the experiment on SN12C, > 100 µM (inactive). Moreover, the GI50 in the experiment on MDA-MB-231 was 61 µM (inactive); with RXF 393 it was > 100 µM (inactive); in the experiment on M14, > 100 µM (inactive); in the experiment on UO-31, 32.7 µM (inactive); in the experiment on BT-549, > 100 µM (inactive); in the experiment with ACHN, > 100 µM (inactive). The GI50 in the experiment on SK-MEL-2 was 22.9 µM (inactive); in the experiment on KM12, 45.2 µM (inactive); in the experiment with CAKI-1 it was > 100 µM (inactive); in the experiment with MOLT-4, 44.9 µM (inactive); in the experiment on HCC 2998, 52.2 µM (inactive); in the experiment with EKVX, 26.6 µM (inactive). For the same molecule, the GI50 in the experiment with SK-MEL-28 and with SNB-75 was > 100 µM (inactive) in each case.
As to `O=C1c2sccc2C(=O)c2c(CO)csc21`, the GI50 in the experiment on Hs-578T is 4.17 µM (inactive); in the experiment with NCI-H226, 4.82 µM (inactive); in the experiment with OVCAR-5, 21.2 µM (inactive); with OVCAR-8, 3.66 µM (inactive); with A549 it was 0.695 µM (active); in the experiment on SN12C it was 6.46 µM (inactive). The GI50 in the experiment with MDA-MB-231 was 17.2 µM (inactive); with RXF 393, 1.39 µM (inactive); with M14 it was 2.21 µM (inactive); in the experiment on UO-31, 7.76 µM (inactive); in the experiment on BT-549, 3.59 µM (inactive); in the experiment with ACHN it was 3.52 µM (inactive). Also, the GI50 is 2.85 µM (inactive) in the experiment on SK-MEL-2; 5.02 µM (inactive) in the experiment on KM12; 15.1 µM (inactive) in the experiment with CAKI-1; 4.89 µM (inactive) with MOLT-4; 3.44 µM (inactive) with HCC 2998; 6.97 µM (inactive) in the experiment on EKVX. Further, the GI50 with SK-MEL-28 was 7.8 µM (inactive); in the experiment with SNB-75, 5.24 µM (inactive).
With `O=c1c2cc(I)ccc2nc(SCc2n[nH]c(=S)o2)n1Cc1ccccc1`, the GI50 was 20.6 µM (inactive) in the experiment with Hs-578T; 11.1 µM (inactive) in the experiment on NCI-H226; 24.8 µM (inactive) in the experiment with OVCAR-5; 19.1 µM (inactive) in the experiment with OVCAR-8; 20.4 µM (inactive) in the experiment on A549; 14.1 µM (inactive) with SN12C. For the same molecule, the GI50 in the experiment with MDA-MB-231 was 17.3 µM (inactive); in the experiment on RXF 393, < 0.01 µM (active); in the experiment on M14, 20.5 µM (inactive); with UO-31, 0.741 µM (active); in the experiment with BT-549 it was 18.9 µM (inactive); in the experiment on ACHN, 15.3 µM (inactive). Moreover, the GI50 in the experiment on SK-MEL-2 is 15.6 µM (inactive); with KM12, 16.9 µM (inactive); in the experiment on CAKI-1 it was 6.25 µM (inactive); with MOLT-4, 20.7 µM (inactive); in the experiment on HCC 2998 it was 18.8 µM (inactive); with EKVX, 19.3 µM (inactive). In addition, the GI50 in the experiment with SK-MEL-28 is 17.5 µM (inactive); with SNB-75, 4.78 µM (inactive).
For the molecule `O=C(NCCCCCCNC(=O)n1cc(F)c(=O)[nH]c1=O)NCCCOCCOCCOCCOCCOCCOCCOCCOCCOCCOCCOCCOCCOCCOCCOCCOCCOCCOCCOCCOCCOCCCNC(=O)C(O)C(O)C(OC1OC(CO)C(O)C(O)C1O)C(O)CO` (stereo not given), the GI50 is 69.2 µM (inactive) in the experiment on Hs-578T; > 77.3 µM (inactive) with NCI-H226; > 54 µM (inactive) with OVCAR-5; 43.4 µM (inactive) in the experiment with OVCAR-8; 7.33 µM (inactive) in the experiment on A549; 56.5 µM (inactive) in the experiment on SN12C. In addition, the GI50 was > 71.4 µM (inactive) with MDA-MB-231; 80.9 µM (inactive) with RXF 393; 67.5 µM (inactive) with M14; 13.4 µM (inactive) in the experiment with UO-31; > 100 µM (inactive) in the experiment on BT-549; 10.3 µM (inactive) in the experiment on ACHN. The GI50 in the experiment with SK-MEL-2 is > 100 µM (inactive); in the experiment on KM12, 19.6 µM (inactive); with CAKI-1, 70 µM (inactive); in the experiment with MOLT-4 it was 37 µM (inactive); in the experiment with HCC 2998, 1.71 µM (inactive); in the experiment on EKVX, > 88.9 µM (inactive). Besides, the values for the GI50 in the experiment on SK-MEL-28 and in the experiment on SNB-75 were 29.1 µM (inactive) and 16.4 µM (inactive), respectively.
In the case of `COc1ccc(/C=C/C(=O)/C=C/c2ccc(OC)cc2)cc1`, the GI50 was 47.2 µM (inactive) in the experiment with Hs-578T; 22.4 µM (inactive) in the experiment on NCI-H226; > 100 µM (inactive) in the experiment on OVCAR-5; 17.6 µM (inactive) in the experiment on OVCAR-8; 46 µM (inactive) with A549; > 100 µM (inactive) in the experiment with SN12C. The GI50 in the experiment with MDA-MB-231 is 89.1 µM (inactive); with RXF 393, 18.3 µM (inactive); in the experiment with M14, 21.1 µM (inactive); in the experiment on UO-31, > 100 µM (inactive); in the experiment with BT-549, 29.4 µM (inactive); in the experiment with ACHN it was 89.1 µM (inactive). The GI50 was 33.3 µM (inactive) in the experiment on SK-MEL-2; 24 µM (inactive) in the experiment on KM12; > 100 µM (inactive) in the experiment with CAKI-1; 51.1 µM (inactive) with MOLT-4; 0.222 µM (active) with HCC 2998; 41.7 µM (inactive) in the experiment on EKVX. Moreover, the GI50 was > 100 µM (inactive) with SK-MEL-28 and 38.9 µM (inactive) with SNB-75.
